# From patent US20100003276A1 (priority 2004, published 2010)
# Biological target: Bacillus anthracis lethal factor (Bacillus anthracis, UniProt P15917)
# Type: biochemical
# Settings: read-out: lethal factor enzyme binding assay IC50
# Chain of Bacillus anthracis lethal factor (P15917 34-809 limits assumed): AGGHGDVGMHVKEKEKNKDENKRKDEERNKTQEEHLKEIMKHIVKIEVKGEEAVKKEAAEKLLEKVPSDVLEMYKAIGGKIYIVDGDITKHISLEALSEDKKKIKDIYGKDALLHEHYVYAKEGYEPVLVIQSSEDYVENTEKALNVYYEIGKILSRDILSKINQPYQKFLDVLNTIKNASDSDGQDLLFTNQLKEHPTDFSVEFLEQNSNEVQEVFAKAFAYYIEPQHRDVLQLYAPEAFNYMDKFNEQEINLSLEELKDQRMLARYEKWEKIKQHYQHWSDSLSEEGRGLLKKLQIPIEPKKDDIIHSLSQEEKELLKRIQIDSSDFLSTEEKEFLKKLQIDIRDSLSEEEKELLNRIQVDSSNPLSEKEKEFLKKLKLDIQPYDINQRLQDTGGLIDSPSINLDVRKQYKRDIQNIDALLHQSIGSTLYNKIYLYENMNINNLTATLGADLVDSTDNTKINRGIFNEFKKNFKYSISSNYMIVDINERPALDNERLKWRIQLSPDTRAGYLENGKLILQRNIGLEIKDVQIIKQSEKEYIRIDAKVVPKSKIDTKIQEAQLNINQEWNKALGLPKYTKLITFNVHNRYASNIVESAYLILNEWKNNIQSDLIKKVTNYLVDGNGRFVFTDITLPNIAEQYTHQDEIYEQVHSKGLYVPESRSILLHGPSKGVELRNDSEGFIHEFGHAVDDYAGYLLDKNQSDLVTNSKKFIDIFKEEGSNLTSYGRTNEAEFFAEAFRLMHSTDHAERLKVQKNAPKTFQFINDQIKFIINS
compound,measurement,value
Cc1cc(S(=O)(=O)N[C@@H](C(=O)NO)C(C)C)ccc1F [N-hydroxy-2(R)-[(4-fluoro-3-methylphenylsulfonyl)]amino-3-methylbutyramide],IC50,130 nM
